Source: patent US4079134A, “7-Acylamino-3-(5-sulfomethyl-1,3,4-thiadiazol-2-y lthiomethyl)-3-cephem-4-carboxylic acids” (SmithKline Corporation, priority 1976, dated 1978)
In brackets after ≈: the same amount, converted by molar mass. Where a name gives a salt, the structure may show the parent alone. Read-outs that look alike come from different tables or passages of the source.

Legend:
[1] = test system: E. coli HH 33779; assay: MIC in vitro; type: cell-based; conditions: Escherichia coli
Procedure: (§1) The compounds of Formula I have antibacterial activity against either Gram positive or Gram negative bacteria with minimum inhibitory concentrations (MIC's) in vitro from 0.4 to 200 μg/ml. Test results for 7-D-mandelamido-3-(5-sulfomethyl-1,3,4-thiadiazol-2-ylthiomethyl)-3-cephem-4-carboxylic acid, disodium salt, tetrahydrate (A) are: […]

[2] = test system: E. coli SK 12140; assay: MIC in vitro; type: cell-based; conditions: Escherichia coli
Procedure: as §1

[3] = test system: Entero. aerog. ATCC 13048; assay: MIC in vitro; type: cell-based; conditions: read-out: minimum inhibitory concentration (MIC)
Procedure: as §1

[4] = test system: Entero. cloacae HH 31254; assay: MIC in vitro; type: cell-based; conditions: Enterobacter cloacae, HH31254, read-out: minimum inhibitory concentration (MIC)
Procedure: as §1

[5] = test system: Kleb. pneumo. SK 1200; assay: MIC in vitro; type: cell-based; conditions: read-out: minimum inhibitory concentration (MIC)
Procedure: as §1

[6] = test system: Kleb. pneumo. SK 4200; assay: MIC in vitro; type: cell-based; conditions: read-out: minimum inhibitory concentration (MIC)
Procedure: as §1

[7] = test system: Proteus mirabilis PN-444; assay: MIC in vitro; type: cell-based
Procedure: as §1

[8] = test system: Proteus morgani 179; assay: MIC in vitro; type: cell-based; conditions: read-out: minimum inhibitory concentration (MIC)
Procedure: as §1

[9] = test system: Pseudo. aeru. HH 63; assay: MIC in vitro; type: cell-based; conditions: read-out: minimum inhibitory concentration (MIC)
Procedure: as §1

[10] = test system: S. aureus HH 127; assay: MIC in vitro; type: cell-based; conditions: Staphylococcus aureus
Procedure: as §1

[11] = test system: S. aureus SK 23390; assay: MIC in vitro; type: cell-based; conditions: Staphylococcus aureus
Procedure: as §1

[12] = test system: S. aureus villaluz SK 70390; assay: MIC in vitro; type: cell-based; conditions: Staphylococcus aureus, read-out: minimum inhibitory concentration (MIC)
Procedure: as §1

[13] = test system: Salmonella ATCC 12176; assay: MIC in vitro; type: cell-based; conditions: ATCC12176, read-out: minimum inhibitory concentration (MIC)
Procedure: as §1

[14] = test system: Serratia marc. ATCC 13880; assay: MIC in vitro; type: cell-based; conditions: ATCC13880, read-out: minimum inhibitory concentration (MIC)
Procedure: as §1

[15] = test system: Strep. Faecalis HH 34358; assay: MIC in vitro; type: cell-based; conditions: Enterococcus faecalis, read-out: minimum inhibitory concentration (MIC)
Procedure: as §1

[16] = test system: E. coli; assay: ED50 in infected mice; type: in vivo; conditions: two determinations; for ED50: Escherichia coli, read-out: ED50 in mice against E. coli
[17] = test system: Kleb. pneumo.; assay: ED50 in infected mice; type: in vivo; conditions: two determinations; for ED50: Mus musculus, read-out: ED50 in mice against Kleb. pneumo.
Procedure: (s.c.); 25 and 10 mg/kg against E. coli as well as 8.7 and 8.5 mg/kg against Kleb. pneumo. (p.o.).

[18] = HH33779, in vitro, E. coli HH 33779, read-out: minimum inhibitory concentration (MIC)
[19] = SK12140, in vitro, E. coli SK 12140, read-out: minimum inhibitory concentration (MIC)
[20] = PN444, in vitro, Proteus mirabilis PN-444, read-out: minimum inhibitory concentration (MIC)
[21] = HH127, in vitro, S. aureus HH 127, read-out: minimum inhibitory concentration (MIC)
[22] = SK23390, in vitro, S. aureus SK 23390, read-out: minimum inhibitory concentration (MIC)
[23] = in vitro, S. aureus villaluz SK 70390

SMILES	MIC [1, 18]	MIC [2, 19]	MIC [3]	MIC [4]	MIC [5]	MIC [6]	MIC [7, 20]	MIC ([8]; in vitro, Proteus morgani 179)	MIC [9]	MIC [10, 21]	MIC [11, 22]	MIC [12, 23]	MIC [13]	MIC [14]	MIC [15]	ED50 ([16]; sc)	ED50 ([17]; po)	ED50 ([17]; sc)	ED50 in mice against Kleb. pneumo. ([17]; p.o.)	further results
Cc1nnc(SCC2=C(C(=O)O)N3C(=O)[C@@H](NC(=O)Cn4cnnn4)[C@H]3SC2)s1 [Cefazolin]	1.6 µg/mL (≈ 3.52 µM)	0.8 µg/mL (≈ 1.76 µM)	1.6 µg/mL (≈ 3.52 µM)	0.8 µg/mL (≈ 1.76 µM)	0.8 µg/mL (≈ 1.76 µM)	1.6 µg/mL (≈ 3.52 µM)	3.1 µg/mL (≈ 6.82 µM)	> 200 µg/mL	> 200 µg/mL	0.4 µg/mL (≈ 0.88 µM)	0.2 µg/mL (≈ 0.44 µM)	100 µg/mL (≈ 220 µM)	0.8 µg/mL (≈ 1.76 µM)	> 200 µg/mL	6.3 µg/mL (≈ 13.9 µM)					
CC1=C(C(=O)O)N2C(=O)[C@@H](NC(=O)[C@H](N)c3ccccc3)[C@H]2SC1 [Cephalexin]																12.5 mg/kg	19 mg/kg	16.5 mg/kg	10 mg/kg	ED50 ([16]; po): 21.5 mg/kg; ED50 in mice against E. coli ([16]; p.o.): 18 mg/kg
CC(=O)OCC1=C(C(=O)O)N2C(=O)[C@@H](NC(=O)Cc3cccs3)[C@H]2SC1 [Cephalothin]			12.5 µg/mL (≈ 31.5 µM)	6.3 µg/mL (≈ 15.9 µM)	1.6 µg/mL (≈ 4.04 µM)	1.6 µg/mL (≈ 4.04 µM)			> 200 µg/mL				1.6 µg/mL (≈ 4.04 µM)	> 200 µg/mL	6.3 µg/mL (≈ 15.9 µM)					MIC ([1]; HH33779, read-out: minimum inhibitory concentration (MIC)): 6.3 µg/mL (≈ 15.9 µM); MIC ([2]; SK12140, read-out: minimum inhibitory concentration (MIC)): 3.1 µg/mL (≈ 7.82 µM); MIC ([7]; Proteus mirabilis, PN444, read-out: minimum inhibitory concentration (MIC)): 0.8 µg/mL (≈ 2.02 µM); MIC [8]: > 200 µg/mL; MIC ([10]; HH127, read-out: minimum inhibitory concentration (MIC)): 0.4 µg/mL (≈ 1.01 µM); MIC ([11]; SK23390, read-out: minimum inhibitory concentration (MIC)): 0.1 µg/mL (≈ 0.252 µM); MIC [12]: 50 µg/mL (≈ 126 µM)
O=C(O)C1=C(CSc2nnc(CS(=O)(=O)O)s2)CS[C@@H]2[C@H](NC(=O)[C@H](O)c3ccccc3)C(=O)N12 [Compound A, 7-D-mandelamido-3-(5-sulfomethyl-1,3,4-thiadiazol-2-ylthiomethyl)-3-cephem-4-carboxylic acid, disodium salt, tetrahydrate]	0.8 µg/mL	0.4 µg/mL	1.6 µg/mL	0.4 µg/mL	0.4 µg/mL	0.4 µg/mL	0.4 µg/mL	1.6 µg/mL	> 200 µg/mL	1.6 µg/mL	0.4 µg/mL	200 µg/mL	0.4 µg/mL	25 µg/mL	25 µg/mL	0.3 mg/kg	8.7 mg/kg	0.78 mg/kg	8.5 mg/kg	ED50 in mice against E. coli ([16]; s.c.): 0.39 mg/kg; ED50 in mice against Kleb. pneumo. ([17]; s.c.): 0.62 mg/kg
